system: cultured human mast cells (CHMC); assay: CHMC low cell density IgE activation: tryptase assay; format: cell-based; conditions: low cell density; read-out: CHMC anti-IgE Tryptase
Procedure: Pellet CHMC cells (980 rpm, 10 min) and resuspend in pre-warmed MT. Add 65 ul of cells to each 96-well plate. Depending on the degranulation activity for each particular CHMC donor, load 1000-1500 cells/well. Mix four times followed by a 1 hr incubation at 37° C. […] Stimulate cells by adding 25 ul of 6× anti-IgE solution to the appropriate plates. Add 25 ul MT to un-stimulated control wells. Mix twice following addition of the anti-IgE. Incubate at 37° C. for 30 minutes. […] Spin plates at 1000 rpm for 10 min to pellet cells. Transfer 25 ul of supernatant to a 96-well black bottom plate and add 100 ul of freshly diluted tryptase substrate solution to each well. Incubate plates at room temperature for 30 min.

Row | SMILES | IC50 [µM]
1 | CNC(=O)COc1cccc(Nc2ncc(F)c(Nc3ccc(OC4CCC(NC(=O)OC(C)(C)C)CC4)c(Cl)c3)n2)c1 (mixture of isomers) [Compound R945384] | 0.913

system: Human Jurkat T-cells (clone N); assay: Jurkat T-cell activation (anti-TCR, CD69 upregulation); format: cell-based; conditions: not given
How it was run: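 Readout is CD69 upregulation by flow cytometry (anti-CD69-APC, 20 min at 4 °C) after 20 h anti-TCR (C305, 500 ng/ml) stimulation at 37 °C.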

Row | SMILES | IC50 [µM]
2 | O=C(CNc1cccc(Nc2ncc(F)c(Nc3ccc4c(c3)OCCO4)n2)c1)NCCNCc1ccccc1 [Compound R950198] | 1.99
3 | O=C(CNc1cccc(Nc2ncc(F)c(Nc3ccc4c(c3)OCCO4)n2)c1)N(CCO)CCO [Compound R950199] | 3.21
4 | O=C(CNc1cccc(Nc2ncc(F)c(Nc3ccc4c(c3)OCCO4)n2)c1)NCCN1CCOCC1 [Compound R950200] | 2.26
5 | CSc1nc2ccc(Nc3ncc(F)c(Nc4ccc5c(c4)OCCO5)n3)cc2s1 [Compound R950201] | 4.5
6 | CSc1nc2ccc(Nc3ncc(F)c(Nc4ccc5nc(SC)sc5c4)n3)cc2s1 [Compound R950202] | > 10
7 | OCCNc1cccc(Nc2ncc(F)c(Nc3ccc4c(c3)OCCO4)n2)c1 [Compound R950208] | 1.77
8 | CSc1nc2ccc(Nc3ncc(F)c(Nc4cccc(O)c4)n3)cc2s1 [Compound R950212] | 9.5
9 | CCOC(=O)CNc1cccc(Nc2ncc(F)c(Nc3cccc(O)c3)n2)c1 [Compound R950215] | 5.01
10 | CCOC(=O)CNc1cccc(Nc2ncc(F)c(Nc3cccc(O)c3)n2)c1 [Compound R950216] | 3.86
11 | CNC(=O)CNc1cccc(Nc2ncc(F)c(Nc3cccc(O)c3)n2)c1 [Compound R950218] | 3.43
12 | O=C(CNc1cccc(Nc2ncc(F)c(Nc3cccc(O)c3)n2)c1)N1CCOCC1 [Compound R950221] | 20.3
13 | O=C(CNc1cccc(Nc2ncc(F)c(Nc3cccc(O)c3)n2)c1)N1CCNCC1 [Compound R950222] | 2.01
14 | CN1CCN(C(=O)CNc2cccc(Nc3ncc(F)c(Nc4cccc(O)c4)n3)c2)CC1 [Compound R950223] | 2.77
15 | O=C(CNc1cccc(Nc2ncc(F)c(Nc3cccc(O)c3)n2)c1)NCCN1CCOCC1 [Compound R950226] | 2.92
16 | CCOC(=O)CNc1cccc(Nc2ncc(F)c(Nc3cccc(NCCO)c3)n2)c1 [Compound R950229] | 3.77
17 | O=C(CNc1cccc(Nc2ncc(F)c(Nc3cccc(NCCO)c3)n2)c1)NCCO [Compound R950231] | 8.69
18 | CNCCNC(=O)CNc1cccc(Nc2ncc(F)c(Nc3cccc(NCCO)c3)n2)c1 [Compound R950234] | > 10
19 | O=C(CNc1cccc(Nc2ncc(F)c(Nc3cccc(NCCO)c3)n2)c1)NCCNCc1ccccc1 [Compound R950235] | 6.26
20 | O=C(CNc1cccc(Nc2ncc(F)c(Nc3cccc(NCCO)c3)n2)c1)N1CCOCC1 [Compound R950236] | 9.69
21 | CN(C)CCCNC(=O)CNc1cccc(Nc2ncc(F)c(Nc3cccc(NCCO)c3)n2)c1 [Compound R950237] | 12.9

Row | SMILES | IC50 [µM]
22 | O=C(CNc1cccc(Nc2ncc(F)c(Nc3cccc(NCCO)c3)n2)c1)NCCN1CCOCC1 [Compound R950239] | > 10
23 | CN1CCN(C(=O)CNc2cccc(Nc3ncc(F)c(Nc4cccc(NCCO)c4)n3)c2)CC1 [Compound R950240] | 8.93
24 | O=C(CNc1cccc(Nc2ncc(F)c(Nc3cccc(NCCO)c3)n2)c1)N1CCNCC1 [Compound R950241] | 5.19
25 | CC(=O)Nc1cccc(N(C(C)=O)c2ncc(F)c(N(C(C)=O)c3cccc(NC(C)=O)c3)n2)c1 [Compound R950244] | > 10
26 | CC(=O)Nc1cccc(N(C(C)=O)c2ncc(F)c(N(C(C)=O)c3cccc(N(C(C)=O)C(C)=O)c3)n2)c1 [Compound R950245] | > 10
27 | CC(=O)Nc1cccc(N(C(C)=O)c2nc(N(C(C)=O)c3cccc(N(C(C)=O)C(C)=O)c3)ncc2F)c1 [Compound R950246] | > 10
28 | CC(=O)N(C(C)=O)c1cccc(N(C(C)=O)c2ncc(F)c(N(C(C)=O)c3cccc(N(C(C)=O)C(C)=O)c3)n2)c1 [Compound R950247] | > 10
29 | O=[N+]([O-])c1cccc(Nc2nc(Nc3ccc4c(c3)NCCO4)ncc2F)c1 [Compound R950253] | 10.5
30 | CNC(=O)COc1cccc(Nc2ncc(F)c(Nc3cccc([N+](=O)[O-])c3)n2)c1 [Compound R950261] | 17.4
31 | CNC(=O)COc1cccc(Nc2ncc(F)c(Nc3cccc(N)c3)n2)c1 [Compound R950262] | 3.15
32 | CNC(=O)COc1cccc(Nc2ncc(F)c(Nc3cccc(N)c3)n2)c1 [Compound R950263] | 1.91
33 | CNC(=O)COc1cccc(Nc2ncc(F)c(Nc3cccc(N(C)C)c3)n2)c1 [Compound R950264] | 1.99
34 | CNC(=O)COc1cccc(Nc2ncc(F)c(Nc3cccc(NCCO)c3)n2)c1 [Compound R950265] | 0.982
35 | CNC(=O)COc1cccc(Nc2ncc(F)c(Nc3cccc(N(CCO)CCO)c3)n2)c1 [Compound R950266] | 3.66
36 | CNC(=O)COc1cccc(Nc2ncc(F)c(Nc3cccc(NC)c3)n2)c1 [Compound R950267] | 1.99
37 | CCOC(=O)COc1cccc(Nc2ncc(F)c(Nc3ccc(O)c(C(=O)O)c3)n2)c1 [Compound R950290] | > 10
38 | O=C(O)COc1cccc(Nc2ncc(F)c(Nc3ccc(O)c(C(=O)O)c3)n2)c1 [Compound R950291] | > 10
39 | CCOC(=O)COc1cccc(Nc2ncc(F)c(Nc3ccc(O)c(C(=O)OC)c3)n2)c1 [Compound R950293] | > 10
40 | CCOC(=O)COc1cccc(Nc2ncc(F)c(Nc3ccc4c(c3)C(OC)CCO4)n2)c1 (stereo not shown) [Compound R950294] | 9.79
41 | COC(=O)COc1cccc(Nc2ncc(F)c(Nc3ccc4c(c3)C(OC)CCO4)n2)c1 (stereo not shown) [Compound R950295] | 4.71

Row | SMILES | IC50 [µM]
42 | CCOC1CCOc2ccc(Nc3nc(Nc4cccc(OCC(=O)NC)c4)ncc3F)cc21 (stereo not shown) [Compound R950296] | 1.95
43 | CNC(=O)COc1cccc(Nc2ncc(F)c(Nc3ccc(OCCC(=O)O)cc3)n2)c1 [Compound R950344] | > 10
44 | CNC(=O)COc1cccc(Nc2ncc(F)c(Nc3ccc4c(c3)C(=O)CCO4)n2)c1 [Compound R950345] | 6.09
45 | CNC(=O)COc1cccc(Nc2ncc(F)c(Nc3ccc(OCCC(=O)OC)cc3)n2)c1 [Compound R950346] | 1.95
46 | CNC(=O)COc1cccc(Nc2ncc(F)c(Nc3ccc(O)cc3)n2)c1 [Compound R950347] | 2.7
47 | CNC(=O)COc1cccc(Nc2ncc(F)c(Nc3ccc4c(c3)C(=NO)CCO4)n2)c1 [Compound R950348] | 0.224
48 | CNC(=O)COc1cccc(Nc2ncc(F)c(Nc3ccc4c(c3)C(=NOC)CCO4)n2)c1 [Compound R950356] | 5.73
49 | CNC(=O)COc1cccc(Nc2ncc(F)c(Nc3ccc4c(c3)C(N)CCO4)n2)c1 (stereo not shown) [Compound R950368] | 0.125
50 | CNC(=O)COc1cccc(Nc2ncc(F)c(Nc3cccc(C(C)=O)c3)n2)c1 [Compound R950371] | 1.1
51 | CNC(=O)COc1cccc(Nc2ncc(F)c(Nc3cccc(C(=O)c4ccccc4)c3)n2)c1 [Compound R950372] | 2.19
52 | CNC(=O)COc1cccc(Nc2ncc(F)c(Nc3cccc(C(C)=NO)c3)n2)c1 [Compound R950373] | 3.61
53 | CNC(=O)COc1cccc(Nc2ncc(F)c(Nc3cccc(C(=NO)c4ccccc4)c3)n2)c1 [Compound R950374] | 1.65
54 | O=C1CCOc2ccc(Nc3ncc(F)c(Nc4ccc5c(c4)C(=O)CCO5)n3)cc21 [Compound R950378] | > 10
55 | CC(=NO)c1cccc(Nc2ncc(F)c(Nc3cccc(C(C)=NO)c3)n2)c1 [Compound R950379] | 0.878
56 | ON=C(c1ccccc1)c1cccc(Nc2ncc(F)c(Nc3cccc(C(=NO)c4ccccc4)c3)n2)c1 [Compound R950380] | 8.69
57 | ON=C1CCOc2ccc(Nc3ncc(F)c(Nc4ccc5c(c4)C(=NO)CCO5)n3)cc21 [Compound R950381] | 0.805
58 | CNC(=O)COc1cccc(Nc2ncc(F)c(Nc3ccc4c(c3)C(OC(C)=O)CCO4)n2)c1 (stereo not shown) [Compound R950382] | 1.55
59 | CNC(=O)COc1cccc(Nc2ncc(F)c(Nc3ccc4c(c3)C(N=[N+]=[N-])CCO4)n2)c1 (stereo not shown) [Compound R950383] | 1.03
60 | CNC(=O)COc1cccc(Nc2ncc(F)c(Nc3ccc4c(c3)C=CCO4)n2)c1 [Compound R950385] | 2.58
61 | CNC(=O)COc1cccc(Nc2ncc(F)c(Nc3ccc(OC)c(CO)c3)n2)c1 [Compound R950386] | 11.4

same assay, conditions: Homo sapiens, Jurkat

Row | SMILES | IC50 [µM]
62 | COc1ccc(OCCNc2ncc(F)c(Nc3ccc4c(c3)OCCO4)n2)cc1 [Compound R950204] | > 10
63 | Fc1cnc(NCc2ccc3c(c2)CCO3)nc1Nc1ccc2c(c1)OCCO2 [Compound R950205] | 24.5
64 | Fc1cnc(NCC2COc3ccccc3O2)nc1Nc1ccc2c(c1)OCCO2 (stereo not shown) [Compound R950206] | > 10
65 | OCCN(CCO)c1cccc(Nc2ncc(F)c(Nc3ccc4c(c3)OCCO4)n2)c1 [Compound R950209] | 3.8
66 | Oc1cccc(Nc2nc(NCc3ccc4c(c3)CCO4)ncc2F)c1 [Compound R950213] | > 10
67 | Oc1cccc(Nc2nc(NCC3COc4ccccc4O3)ncc2F)c1 (stereo not shown) [Compound R950214] | > 10
68 | Nc1cccc(Nc2ncc(F)c(Nc3cccc(O)c3)n2)c1 [Compound R950227] | 7.11
69 | CC(=O)c1cccc(Nc2ncc(F)c(Nc3cccc(C(C)=O)c3)n2)c1 [Compound R950376] | 18.1
70 | O=C(c1ccccc1)c1cccc(Nc2ncc(F)c(Nc3cccc(C(=O)c4ccccc4)c3)n2)c1 [Compound R950377] | 5.96

— US8158621B2, “Methods of treating or preventing autoimmune diseases with 2,4-pyrimidinediamine compounds” (Rigel Pharmaceuticals, Inc., priority 2002, dated 2012)
